Measurements as given in patent publication US4079140A, “Benzothienyl aminoethyl ketones and their application in therapeutics” (Innothera, priority 1975, dated 1978).
In brackets after ≈: the same amount, converted by molar mass. Several values for one entry are separate records, joined by “and”; a condition that tells them apart may be missing. Equal values may be shown once. Where a name gives a salt, the structure may show the parent alone. Read-outs that look alike come from different tables or passages of the source.

What was measured:
[1] = Acute oral toxicity (LD 50), Miller and Tainter; settings: mouse, in vivo; for LD50 at 168 h: mice deprived of food 18 hours, oral (esophageal probe), mortality followed seven days, read-out: LD 50 (50% lethal dose)
Description: Acute toxicity of compounds of formula (I) was measured orally (esophageal probe) on mice deprived of food 18 hours before the beginning of the test. The products were suspended in a solution of dilute carboxymethyl cellulose. Calculation of the 50% lethal dose was carried out according to the method of Miller and Tainter (Miller L. C., Tainter M. L., proc. Soc. Exptl. Biol. Med. 1944, 57, 261-264).
The mortality rate was checked for seven days following the treatment.

[2] = test system: isolated heart of a guinea-pig; experiment: Vasodilatatory activity, coronary flow of isolated perfused heart; settings: for activation at 10 µg/mL: Cavia porcellus, compound 1 × 10^-5 g/ml, Locke solution, 37° C, at climax of activity, read-out: P (X): percentage of coronary flow increase; for ratio P (X)/P (R): X and Dipyridamole both 1 × 10^-5 g/ml, head is drawing 21
Description: The percentage of flow increase (P) is calculated at the climax of the activity of X or R.

human blood-plaques = experiment: Blood-plaque aggregation inhibition in B.P.R.P. (D.P.A., adrenaline, collagene); settings: for a(X): blood-plaque aggregation inhibiting activity, D.P.A. / a(X): blood-plaque aggregation inhibiting activity, Adrenaline: compound 2.5 × 10^-5 g/ml; for ratio of activities a(X)/a(R), D.P.A. / ratio of activities a(X)/a(R), Adrenaline: X 2.5 × 10^-5 g/ml vs Dipyridamole 5 × 10^-4 g/ml; for ratio of activities a(X)/a(R), D.P.A.: head is drawing 13; for ratio of activities a(X)/a(R), Adrenaline: head is drawing 15; for a(X): blood-plaque aggregation inhibiting activity, Collagene: compound 2 × 10^-5 g/ml; for ratio of activities a(X)/a(R), Collagene: X 2 × 10^-5 g/ml vs Dipyridamole 2 × 10^-4 g/ml, head is drawing 16
rat's isolated duodenum = experiment: Spasmolytic activity on isolated duodenum, barium chloride contraction (Magnus); settings: for relative activity, ratio of ED 50 (papaverine hydrochloride = R): 2 = twice the activity of papaverine hydrochloride, head is drawing 18; for IC50: Rattus norvegicus
Description: Spasmolytic activity was studied on a rat's isolated duodenum maintained in a survival medium of an aerated Tyrode solution heated to 38° C, according to the technique of Magnus (Magnus R. -- Archiv. ges. Physiol., 1905, 180, 1-71).
The contracting agent was barium chloride, the reference antagonist agent being papaverine hydrochloride (R). The average activity of compounds of formula I (X) compared to that of the reference agent were expressed by calculating the ratio of 50 efficient doses (ED 50) determined graphically on logarithmic paper: [formula]
For example: a substance having a relative activity expressed by the figure 2 has an activity equal to twice that of papaverine hydrochloride.

[3] = test system: phenylparaquinone (P.P.Q.) painful syndrome in mouse; experiment: Analgesic and anti-inflammatory activity (P.P.Q. painful syndrome); format: in vivo; settings: for a (X): percentage activity, P.P.Q.: 50 mg/kg digestively; for ratio of activity of X in relation to R, P.P.Q.: X 50 mg/kg vs Glafenine 25 mg/kg, 0.5 = half the activity of reference, head is drawing 19
Description: The intraperitoneal injection of phenylparaquinone (P.P.Q.) to a mouse causes the appearance of a painful syndrome appearing within 5 minutes of the injection and disappearing after about 30 minutes (Siegmund E. A., Cadmus A., Lu G., J. Pharmacol. Exp. Therap. 1957, 119, 453).
This painful syndrome manifests itself in the animal by a series of characteristic crises more or less close together and fleeting, during which can be noted a twisting or stretching of the body, a hollowing of the sides and a stretching of the hind legs.
It is then possible to note the number of crises in a given interval of time.
The preventive administration of analgesic or anti-inflammatory substances prevents the appearance of the crises and reduces the frequence thereof.
The reference substance used in the tests (R) is the ester of N-(7-chloro-4-quinolyl) anthrilic acid and 2,3-dihydroxy n. propanol (known under the trademark "Glafenine").
It is administered orally as a dose of 25 mg/kg.
The compounds of formula I (X) were administered digestively as a dose of 50 mg/kg.
The interval of time (t) chosen for calculating the analgesic activity was between 10 and 15 minutes after injection of P.P.Q. which is the period of maximum frequency of the crises. This activity was expressed in the following manner;
n: the number of crises observed in controle mice;
n': the number of crises observed in mice previously treated with the reference substance (R);
n": the number of crises observed in mice having received substance (X)
The percentage activity of R is equal to: [formula] The percentage activity of X is equal to: [formula] The activity of X in relation to R is estimated by the ratio: [formula]

[4] = barium chloride contraction, Tyrode solution, 38° C, read-out: ED 50 (X), spasmolytic activity
[5] = crises 10 to 15 minutes after P.P.Q.

Row | SMILES | LD50 at 168 h [1] [mg/kg] | ratio of activities a(X)/a(R), D.P.A. (human blood-plaques) | a(X): blood-plaque aggregation inhibiting activity, Adrenaline (human blood-plaques; adrenaline-induced) [%] | ratio of activities a(X)/a(R), Adrenaline (human blood-plaques) | a(X): blood-plaque aggregation inhibiting activity, Collagene (human blood-plaques; collagene-induced) [%] | ratio of activities a(X)/a(R), Collagene (human blood-plaques) | a (X): percentage activity, P.P.Q. [3, 5] [%] | ratio of activity of X in relation to R, P.P.Q. [3] | other results
1 | O=C(CCN1CCCCCC1)c1cc2ccccc2s1 [Compound 1, 1-(benzothien-2'yl) 3-N-perhydroazepino propanone oxalate] | 1200 | 7.5 × 10^-1 | 6 | 6 × 10^-2 | 91 | 2.5 | – | – | activation at 10 µg/mL [2]: 66%; ratio P (X)/P (R) [2]: 0.87; a(X): blood-plaque aggregation inhibiting activity, D.P.A. (human blood-plaques; D.P.A.-induced): 54%
2 | CN(C)CCC(=O)c1cc2ccccc2s1 [Compound 2] | 960 | 1.4 | 98 | 1 | 74 | 1.75 | 36 | 0.51 | activation at 10 µg/mL [2]: 64%; ratio P (X)/P (R) [2]: 0.4; relative activity, ratio of ED 50 (papaverine hydrochloride = R) (rat's isolated duodenum): 2.64; IC50 (rat's isolated duodenum; [4]): 1.6 µg/mL (≈ 6.86 µM)
3 | C=CCN(CC=C)CCC(=O)c1cc2ccccc2s1 [Compound 3] | 1000 | – | 64 | 7 × 10^-1 | 17 | 2.5 × 10^-1 | 58 | 0.75 | –
4 | O=C(CCN1CCCCC1)c1cc2ccccc2s1 [Compound 4] | > 1100 | 1.2 | 89 | 1.1 | 91 | 2.2 | 25 | 0.33 | relative activity, ratio of ED 50 (papaverine hydrochloride = R) (rat's isolated duodenum): 1.69; IC50 (rat's isolated duodenum; [4]): 3.1 µg/mL (≈ 11.3 µM); a(X): blood-plaque aggregation inhibiting activity, D.P.A. (human blood-plaques; D.P.A.-induced): 63%
5 | O=C(CCN1CCOCC1)c1cc2ccccc2s1 [Compound 5] | > 1100 | – | 44 | 4.6 × 10^-1 | 45 | 1.25 | 54 | 0.76 | –
6 | OCCN(CCO)c1nc(N2CCCCC2)c2nc(N(CCO)CCO)nc(N3CCCCC3)c2n1 [Dipyridamole, reference compound] | – | – | – | – | – | – | – | – | LD50 ([1]; po, reference product of the aggregation test, source of value not given): 2150 mg/kg; a(R): blood-plaque aggregation inhibiting activity of reference, D.P.A. (human blood-plaques; D.P.A.-induced, reference 5 × 10^-4 g/ml, tested beside the compound of the same line): 72% and 53%; a(R): blood-plaque aggregation inhibiting activity of reference, Adrenaline (human blood-plaques; adrenaline-induced, reference 5 × 10^-4 g/ml, tested beside the compound of the same line): 96% and 91% and 90% and 80%; a(R): blood-plaque aggregation inhibiting activity of reference, Collagene (human blood-plaques; collagene-induced, reference 2 × 10^-4 g/ml, tested beside the compound of the same line): 36% and 42% and 67%
7 | O=C(OCC(O)CO)c1ccccc1Nc1ccnc2cc(Cl)ccc12 (stereo not shown) [Glafenine, ester of N-(7-chloro-4-quinolyl) anthrilic acid and 2,3-dihydroxy n. propanol, reference compound] | – | – | – | – | – | – | – | – | a (R): percentage activity of reference, P.P.Q. ([3]; 25 mg/kg orally, crises 10 to 15 minutes after P.P.Q., tested beside the compound of the same line): 71% and 77% and 75%
8 | COc1ccc(Cc2nccc3cc(OC)c(OC)cc23)cc1OC [papaverine hydrochloride, reference compound] | – | – | – | – | – | – | – | – | IC50 (rat's isolated duodenum; read-out: ED 50 (R), spasmolytic activity of reference, barium chloride contraction, Tyrode solution, 38° C, tested beside the compound of the same line): 4.25 µg/mL
